The source of these data is the NIST ThermoML archive (doi:10.1021/je4006739).

The conditions of the series: Liquid; for mass density: 293.15 K, 101.33 kPa, Vibrating tube method; for Normal boiling temperature: Ebulliometric method (Recirculating still).

SMILES strings stand for the structures. ± gives the expanded uncertainty stated by the source.

One may read the mass density as the mass of a sample divided by its volume. For the compound `CCOCCO` [2-ethoxyethan-1-ol], the mass density is on record as 928.92 ± 0.23 kg/m3 and the Normal boiling temperature came out at 135.20 ± 1 °C.
In the same order, the values of `C[S+](C)[O-]` [dimethyl sulfoxide] are 1092.48 ± 0.27 kg/m3 and 189.10 ± 1 °C.
For `CCc1ccccc1` [ethylbenzene], in that order: 863.64 ± 0.23 kg/m3 and 136.10 ± 1 °C.
